Test results: US12351580B2, “NLRP3 modulators” (Innate Tumor Immunity, Inc., priority 2017, dated 2025)

Biological target: T1, TLR8 (Homo sapiens, UniProt Q9NR97)
T1 construct: host or cells: HEK-Blue cells (human HEK) co-expressing TLR8 and an NF-kB/AP1-inducible SEAP reporter
T1 sequence (Q9NR97 27-1041): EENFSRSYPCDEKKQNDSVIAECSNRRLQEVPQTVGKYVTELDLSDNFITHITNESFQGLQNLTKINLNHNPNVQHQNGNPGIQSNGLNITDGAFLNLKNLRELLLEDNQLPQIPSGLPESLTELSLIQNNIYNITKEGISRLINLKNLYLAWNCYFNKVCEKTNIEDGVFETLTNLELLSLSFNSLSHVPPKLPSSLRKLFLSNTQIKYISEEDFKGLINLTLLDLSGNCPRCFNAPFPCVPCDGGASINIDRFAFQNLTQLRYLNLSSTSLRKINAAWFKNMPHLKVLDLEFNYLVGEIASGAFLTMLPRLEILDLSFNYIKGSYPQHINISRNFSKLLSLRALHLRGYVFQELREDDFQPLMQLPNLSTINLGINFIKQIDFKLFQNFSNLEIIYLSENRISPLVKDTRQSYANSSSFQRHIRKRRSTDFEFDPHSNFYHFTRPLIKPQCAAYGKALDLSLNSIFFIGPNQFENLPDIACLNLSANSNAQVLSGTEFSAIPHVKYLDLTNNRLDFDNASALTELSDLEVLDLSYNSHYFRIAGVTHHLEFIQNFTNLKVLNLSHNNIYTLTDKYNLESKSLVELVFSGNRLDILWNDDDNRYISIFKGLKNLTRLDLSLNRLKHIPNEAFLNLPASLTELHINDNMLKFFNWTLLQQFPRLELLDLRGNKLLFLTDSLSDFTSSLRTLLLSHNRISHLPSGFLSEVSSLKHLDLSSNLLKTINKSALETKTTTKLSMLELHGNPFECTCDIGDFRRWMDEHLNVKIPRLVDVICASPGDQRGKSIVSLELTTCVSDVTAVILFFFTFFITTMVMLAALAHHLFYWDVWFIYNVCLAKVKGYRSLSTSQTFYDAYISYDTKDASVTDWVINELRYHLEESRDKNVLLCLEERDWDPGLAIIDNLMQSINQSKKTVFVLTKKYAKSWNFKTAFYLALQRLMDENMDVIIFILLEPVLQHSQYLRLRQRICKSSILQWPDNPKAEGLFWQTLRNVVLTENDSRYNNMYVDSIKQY
Test: In vitro human TLR8 binding reporter assay (HEK-Blue, NF-kB/AP1-inducible SEAP)
Format: cell-based
Details: activity range symbols
Procedure, shortened: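 Reporter cells are plated at 15,000 per well and rested 24 h. Next day, test compounds or DMSO are dispensed, followed by 18 h incubation at 37 °C, 5% CO2.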

SMILES | EC50
COc1ccc(Cn2c(CN3C(=O)OCC3c3ccccc3)nc3c(N)nc4cc(-c5cc[nH]n5)ccc4c32)cc1 (stereo not drawn) [Compound 409] | > 100 µM
COc1ccc(Cn2c(Cn3cnccc3=O)nc3c(N)nc4cc(-c5cc[nH]n5)ccc4c32)cc1 [Compound 414] | > 100 µM
CCN(Cc1nc2c(N)nc3cc(-c4cc[nH]n4)ccc3c2[nH]1)C(=O)C1COC1 [Compound 417] | > 100 µM
CCN(Cc1nc2c(N)nc3cc(-c4cc[nH]n4)ccc3c2n1C)C(=O)OC(C)(C)C [Compound 420] | > 100 µM
Nc1nc2cc(-n3cccn3)ccc2c2[nH]c(CN3CCCCC3=O)nc12 [Compound 423] | > 100 µM
CCN(Cc1nc2c(N)nc3cc(-c4cc[nH]n4)ccc3c2[nH]1)C(=O)c1cnccn1 [Compound 442, N-{[4-amino-7-(1H-pyrazol-3-yl)-1H-imidazo[4,5-c]quinolin-2-yl]methyl}-N-ethylpyrazine-2-carboxamide] | > 100 µM
CCN(Cc1nc2c(N)nc3cc(-c4cc[nH]n4)ccc3c2[nH]1)C(=O)CCCc1ccccc1 [Compound 444, N-{[4-amino-7-(1H-pyrazol-3-yl)-1H-imidazo[4,5-c]quinolin-2-yl]methyl}-N-ethyl-4-phenylbutanamide] | 1 to 20 µM
CCN(Cc1nc2c(N)nc3cc(-c4cc[nH]n4)ccc3c2[nH]1)C(=O)CCc1ccccc1 [Compound 447, N-{[4-amino-7-(1H-pyrazol-3-yl)-1H-imidazo[4,5-c]quinolin-2-yl]methyl}-N-ethyl-3-phenylpropanamide] | 1 to 20 µM

Continued, values first:

EC50 | SMILES
> 100 µM | CCN(Cc1nc2c(N)nc3cc(-c4ccsc4)ccc3c2[nH]1)C(C)=O [Compound 419, N-((4-Amino-7-(thiophen-3-yl)-1H-imidazo[4,5-c]quinolin-2-yl)methyl)-N-ethylacetamide]
> 100 µM | CCN(Cc1nc2c(N)nc3cc(-c4cncc(F)c4)ccc3c2[nH]1)C(C)=O [Compound 427]
> 100 µM | CCN(Cc1nc2c(N)nc3cc(-c4cc[nH]n4)ccc3c2[nH]1)C(=O)Cc1cccc(C)c1 [Compound 437, N-{[4-amino-7-(1H-pyrazol-3-yl)-1H-imidazo[4,5-c]quinolin-2-yl]methyl}-N-ethyl-2-(3-methylphenyl)acetamide]
> 100 µM | CCN(Cc1nc2c(N)nc3cc(-c4cc[nH]n4)ccc3c2[nH]1)C(=O)c1cccnc1 [Compound 438, N-{[4-amino-7-(1H-pyrazol-3-yl)-1H-imidazo[4,5-c]quinolin-2-yl]methyl}-N-ethylpyridine-3-carboxamide]
> 100 µM | CCN(Cc1nc2c(N)nc3cc(-c4cc[nH]n4)ccc3c2[nH]1)C(=O)c1ccccn1 [Compound 439, N-{[4-amino-7-(1H-pyrazol-3-yl)-1H-imidazo[4,5-c]quinolin-2-yl]methyl}-N-ethylpyridine-2-carboxamide]
> 100 µM | CCN(Cc1nc2c(N)nc3cc(-c4cc[nH]n4)ccc3c2[nH]1)C(=O)CC(C)(C)O [Compound 440, N-{[4-amino-7-(1H-pyrazol-3-yl)-1H-imidazo[4,5-c]quinolin-2-yl]methyl}-N-ethyl-3-hydroxy-3-methylbutanamide]
> 100 µM | CCN(Cc1nc2c(N)nc3cc(-c4cc[nH]n4)ccc3c2[nH]1)C(=O)c1cccn1C [Compound 446, N-{[4-amino-7-(1H-pyrazol-3-yl)-1H-imidazo[4,5-c]quinolin-2-yl]methyl}-N-ethyl-1-methyl-1H-pyrrole-2-carboxamide]
20 to 100 µM | CCN(Cc1nc2c(N)nc3cc(-c4cc[nH]n4)ccc3c2[nH]1)C(=O)c1ccccc1Cl [Compound 449, N-{[4-amino-7-(1H-pyrazol-3-yl)-1H-imidazo[4,5-c]quinolin-2-yl]methyl}-2-chloro-N-ethylbenzamide]
> 100 µM | CCN(Cc1nc2c(N)nc3cc(-c4cc[nH]n4)ccc3c2[nH]1)C(=O)c1ccncc1 [Compound 450, N-{[4-amino-7-(1H-pyrazol-3-yl)-1H-imidazo[4,5-c]quinolin-2-yl]methyl}-N-ethylpyridine-4-carboxamide]
20 to 100 µM | CCN(Cc1nc2c(N)nc3cc(-c4cc[nH]n4)ccc3c2[nH]1)C(=O)c1cn(C)c2ccccc12 [Compound 451, N-{[4-amino-7-(1H-pyrazol-3-yl)-1H-imidazo[4,5-c]quinolin-2-yl]methyl}-N-ethyl-1-methyl-1H-indole-3-carboxamide]

Same assay, conditions: numeric bounds

SMILES | EC50
CCN(Cc1nc2c(N)nc3cc(Br)ccc3c2n1CC(C)C)C(C)=O [Compound 430] | > 10 µM
CCN(Cc1nc2c(N)nc3cc(Br)ccc3c2n1CCCOC)C(C)=O [Compound 431] | > 10 µM
N#Cc1ccc(-c2ccc3c(c2)nc(N)c2nc(CN4CCCC4=O)[nH]c23)cc1 [Compound 434] | > 30 µM

Now from value to molecule:

EC50 | SMILES
> 10 µM | CCN(Cc1nc2c(N)nc3cc(-c4ccc(C)cc4)ccc3c2[nH]1)C(C)=O [Compound 422]
> 50 µM | CCOC(=O)N(CC)Cc1nc2c(N)nc3cc(-c4cc[nH]n4)ccc3c2[nH]1 [Compound 436, Ethyl N-{[4-amino-7-(1H-pyrazol-3-yl)-1H-imidazo[4,5-c]quinolin-2-yl]methyl}-N-ethylcarbamate]
> 62 µM | CCN(Cc1nc2c(N)nc3cc(-c4cc[nH]n4)ccc3c2[nH]1)C(=O)c1ccc(OC)cc1 [Compound 441, N-{[4-amino-7-(1H-pyrazol-3-yl)-1H-imidazo[4,5-c]quinolin-2-yl]methyl}-N-ethyl-4-methoxybenzamide]
> 62 µM | CCN(Cc1nc2c(N)nc3cc(-c4cc[nH]n4)ccc3c2[nH]1)C(=O)Cc1ccccc1 [Compound 443, N-{[4-amino-7-(1H-pyrazol-3-yl)-1H-imidazo[4,5-c]quinolin-2-yl]methyl}-N-ethyl-2-phenylacetamide]
> 62 µM | CCN(Cc1nc2c(N)nc3cc(-c4cc[nH]n4)ccc3c2[nH]1)C(=O)CCC(C)C [Compound 445, N-{[4-amino-7-(1H-pyrazol-3-yl)-1H-imidazo[4,5-c]quinolin-2-yl]methyl}-N-ethyl-4-methylpentanamide]
> 62 µM | CCN(Cc1nc2c(N)nc3cc(-c4cc[nH]n4)ccc3c2[nH]1)C(=O)c1ccc(Cl)cc1 [Compound 452, N-{[4-amino-7-(1H-pyrazol-3-yl)-1H-imidazo[4,5-c]quinolin-2-yl]methyl}-4-chloro-N-ethylbenzamide]
